Assay results as given in PMC8505397, “Development of peptides targeting receptor binding site of the envelope glycoprotein to contain the West Nile virus infection” (Scientific Reports, 2021).

Assays:
hBMECs = test: Peptide cytotoxicity assay (XTT); assay type: cell-based, human; details: positive control; hBMECs; untreated = 100% viability
Procedure: The toxicity of peptides was determined by the XTT test (AppliChem, USA) as per the manufacturer’s instructions. Details are presented in Supplementary Method S15. […]
Cytotoxicity assay. hBMECs were cultured in 96-well TPP tissue culture plates (Sigma) in supplemented EBM-2 medium (Lonza) to obtain ~70% confluency (as described in Supplementary Method S1). The peptides in concentrations of 1 µM, 2 µM, 4 µM, and 6 µM (diluted in 100 µL of EBM-2 medium supplemented only with 10% FBS, 10 mM HEPES and 1 ng/mL bFGF; Sigma) were added and incubated for 24 h at 37°C in a humid atmosphere of 5% CO2. Untreated cells served as a negative control (100% viability). For positive control, cells treated with 0.01% Triton X-100 were used. After incubation, the mixture of XTT and activation reagent (5:0.1 [v/v], 50 µL each well) was added to each well and incubated for an additional 3 h at 37°C in a humid atmosphere of 5% CO2. The absorbance was measured at 450 nm. The assay was performed in replicates. The viability (%) of endothelial cells was calculated using the formula: Cell viability (%) = [(A - xA ) × 100] / (xA -

[1] = molecular target: proteins of hBMECs (human (endogenous in hBMECs)); test: ELISA; proteins of hBMECs coated into microtiter wells, rDIII (2 µg, printed as 0.15 nM) added without pre-blocking; negative control (no rDIII) subtracted

With Triton X-100 [reference compound] the “cell viability (XTT)” value (hBMECs) was under 2.8%.
Work on “recombinant domain III (DIII) of the envelope (E) glycoprotein of West Nile virus (domain or fragment)” yielded an A450 [1] of 1.06.
